Assays:
[1] = target: T1, CCK receptor (pancreas) (Rattus norvegicus, UniProt P30551); assay: CCK Receptor Binding (Pancreas), inhibition of 125I-CCK-8 binding; set-up: species or system rat (male Sprague-Dawley); conditions: rat pancreas membranes; 50 pM 125I-CCK-8; pH 6.5, 25° C., 2 hours
T1 construct: The whole pancreas was dissected free of fat tissue and was homogenized; from tissue; host or cells: whole pancreas of male Sprague-Dawley rats, membrane homogenate
T1 sequence (P30551 1-444): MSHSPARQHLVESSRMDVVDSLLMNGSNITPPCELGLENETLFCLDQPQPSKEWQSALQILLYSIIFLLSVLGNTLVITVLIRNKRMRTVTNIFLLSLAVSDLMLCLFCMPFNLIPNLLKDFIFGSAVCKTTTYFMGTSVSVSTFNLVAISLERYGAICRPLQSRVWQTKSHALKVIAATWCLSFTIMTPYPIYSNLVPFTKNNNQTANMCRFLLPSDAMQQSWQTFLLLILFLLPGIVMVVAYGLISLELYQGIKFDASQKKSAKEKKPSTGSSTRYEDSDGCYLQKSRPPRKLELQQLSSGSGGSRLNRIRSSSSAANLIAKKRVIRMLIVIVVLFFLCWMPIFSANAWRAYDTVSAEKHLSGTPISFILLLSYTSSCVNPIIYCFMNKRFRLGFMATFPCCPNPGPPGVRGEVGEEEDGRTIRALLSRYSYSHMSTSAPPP
Description: CCK-8 sulphated was radiolabelled with ^125 I-Bolton Hunter reagent (2000 Ci/mmole). Receptor binding was performed according to Chang and Lotti (Proc. Natl. Acad. Sci. 83, 4923-4926, 1986) with minor modifications.
Male Sprague-Dawley rats (150-200 g) were sacrificed by decapitation. The whole pancreas was dissected free of fat tissue and was homogenized in 25 volumes of ice-cold 10 mM N-2-hydroxyethyl-piperazine-N'-2-ethane sulphonic acid (HEPES) buffer with 0.1% soya bean trypsin inhibitor (pH 7.4 at 25° C.) with a Kinematica Polytron. The homogenates were centrifuged at 47,800 g for 10 min. Pellets were resuspended in 10 volumes of binding assay buffer (20mM (HEPES)), 1 mM ethylene glycol-bis-(β-aminoethylether-N,N'-tetraacetic acid) (EGTA), 5 mM MgCl2, 150 mM NaCl, bacitracin 0.25 mg/ml, soya bean trypsin inhibitor 0.1 mg/ml, and bovine serum albumin 2 mg/ml pH 6.5 at 25° C.) using a Teflon (trademark) homogenizer, 15 strokes at 500 rpm. The homogenate was further diluted in binding assay buffer to give a final concentration of 0.5 mg original wet weight/1 ml buffer. […] The radioactivity on the filters was counted with a LKB gamma counter. […]

[2] = target: T2, CCK receptor (brain) (Cavia porcellus, UniProt H0VZC5); assay: CCK Receptor Binding (Brain), inhibition of 125I-CCK-8 binding; set-up: species or system guinea pig (male Hartley); conditions: guinea pig cortex membranes; 50 pM 125I-CCK-8; pH 6.5, 25° C., 2 hours
T2 construct: the cortex was removed and homogenized in 25 mL ice-cold 0.32M sucrose; from tissue; host or cells: cortex of male Hartley guinea pigs, P2 membrane pellet
Description: CCK-8 sulphated was radiolabelled and the binding was performed according to the description for the pancreas method with minor modifications.
Male Hartley guinea pigs (300-500 g) were sacrificed by decapitation and the cortex was removed and homogenized in 25 mL ice-cold 0.32M sucrose. The homogenates were centrifuged at 1000 g for 10 minutes and the resulting supernatant was recentrifuged at 20,000 g for 20 minutes. The P2 pellet was resuspended in binding assay buffer (20 mM HEPES, 5 mM MgCl2, 0.25 mg/ml bacitracin, 1 mM EGTA pH 6.5 at 25° C.), using a Teflon (trademark) homogenizer (5 strokes at 500 rpm) to give a final concentration of 10 mg original wet weight/1.2 ml buffer. For the binding assay, 50 μl of buffer (for total binding) or unlabelled CCK-8 sulphated to give a final concentration of 1 μM (for nonspecific binding) or the compounds of Formula I (for determination of inhibition of ^125 I-CCK-8 binding) and 50 μl of 500 pM ^125 I-CCK-8 (i.e. final concentration of 50 pM) were added to 400 μl of the membrane suspensions in microfuge tubes. All assays were run in duplicate. The reaction mixtures were incubated at 25° C. for 2 hours and then the reaction was terminated by rapid filtration (Brandell 24 well cell harvester) on Whatman GF/C filters with 3×5 ml washes of cold 100 mM NaCl. The radioactivity on the filters was counted with a LKB gamma counter. […]

T2 sequence (H0VZC5 entry or part of it): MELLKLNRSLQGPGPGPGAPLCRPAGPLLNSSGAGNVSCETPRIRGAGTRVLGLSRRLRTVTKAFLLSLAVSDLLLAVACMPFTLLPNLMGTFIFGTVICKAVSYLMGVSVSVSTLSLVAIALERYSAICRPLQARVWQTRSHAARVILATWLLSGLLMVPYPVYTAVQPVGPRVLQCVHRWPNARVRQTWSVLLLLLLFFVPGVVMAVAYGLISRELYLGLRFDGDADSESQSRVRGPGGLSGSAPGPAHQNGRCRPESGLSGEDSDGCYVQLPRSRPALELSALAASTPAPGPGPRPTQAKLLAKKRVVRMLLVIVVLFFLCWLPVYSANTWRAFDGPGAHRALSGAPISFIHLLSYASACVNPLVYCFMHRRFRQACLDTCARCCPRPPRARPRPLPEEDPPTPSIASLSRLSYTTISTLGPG

SMILES	IC50 [1] [nM]	IC50 [2] [nM]
CC(C)CN1C(=O)C(NC(=O)Nc2cccc(-c3nn[nH]n3)c2)N=C(c2ccc(=O)[nH]c2)c2ccccc21 (racemic) [Example 1, N-[3(R,S)-2,3-Dihydro-1-(2-methylpropyl)-2-oxo-5-(6-oxo-1,6-dihydropyridin-3-yl)-1H-1,4-benzodiazepin-3-yl]-N'-[3-(tetrazol-5-yl)phenyl]urea]	2680	19.2
CC(C)CN1C(=O)C(NC(=O)Nc2cccc(-c3nn[nH]n3)c2)N=C(c2cc[nH]c(=O)c2)c2ccccc21 (racemic) [Example 2, N-[3(R,S)-2,3-Dihydro-1-(2-methylpropyl)-2-oxo-5-(2-oxo-1,2-dihydropyridin-4-yl)-1H-1,4-benzodiazepin-3-yl]-N'-[3-(tetrazol-5-yl)phenyl]urea]	3380	23
